Reference: US20100041089A1, “IMPROVED METHOD FOR DETECTING CHEMICAL […]” (priority 2006, published 2010)

System: yeast genes (expressed mRNA)
Assay: DNA chip measurement of expressed mRNA of yeast genes after culture with a toxic chemical substance
Format: cell-based, Saccharomyces cerevisiae S288C
Conditions: for level of expressed mRNA in the presence of chemical substance / level in the absence of chemical substance: cultured two hours with the chemical substance; for The level of expressed mRNA in the presence of chemical substance/The level of expressed mRNA in the absence of chemical substance: cultured two hours with substance
Protocol: Yeast (Saccharomyces cerevisiae S288C (a SUC2mal mel gap2 CUP1)) were cultured at 25° C. on YPD medium (yeast extract 1%, polypeptone 2%, glucose 2%). One of toxic chemical substances was added to the cell at logarithmic growth phase, and the cell was further cultured for two hours. Cell was cultured without any chemical substance in the same condition, and was used as a control. Concentrations of the chemical substances were defined to inhibit the growth of the yeast but not lead to death.
After the completion of cultivation, the culture was centrifuged to collect the cells. To the cells, sodium acetate buffer (50 mM sodium acetate, 10 mM EDTA, 1% SDS) was added, and the mixture was shaken at 65° C. for five minutes, followed by returning to room temperature, and obtaining the supernatant, which procedure was repeated two times. To the supernatant, ½ amount of a solution of phenol/chloroform (1:1) was added, and the mixture was centrifuged to give a supernatant, an equal amount of chloroform was added, and the mixture was centrifuged to give a supernatant. To the supernatant, an equal amount of isopropanol containing 0.3 M sodium acetate was added, and the mixture was allowed to stand at room temperature for 30 minutes, after which the mixture was centrifuged to give sediment of the whole RNAs. Seventy % ethanol was added to the sediment, and the mixture was again centrifuged to give sediment, which was then dried and dissolved in water. mRNA was isolated from the whole RNAs as followings. In view of the fact that a poly A chain is attached to the 3′ terminus of mRNA, a polynucleotide having a poly T structure which was immobilized on the surface of latex beads was used to trap the mRNA, and then the mRNA was washed and eluted with spine column (Oligotex-dT30<Super>mRNA Purification Kit, Takara). Reverse transcription of the mRNA was conducted with a reverse transcriptase (Super Script II Reverse Transcriptase; catalogue No. 18064-014, GibcoBRL) using fluorescence-labeled nucleotides to give cDNAs that were introduced with Cy3-dUTP or Cy5-dUTP during the reverse transcription.
The labeled cDNAs were dissolved in TE buffer (10 mM Tris-HCl/1 mM EDTA, pH 8.0), and the solution was dropped on the DNA chip containing the whole genes of yeast (DNA Chip Research Inc. Japan) so that the cDNAs were hybridized on the DNA chip at 65° C. for over 12 hours. The fluoresces intensity of the DNA chip was read with a scanner, and the ratio relative to the fluorescence intensity resulting from the absence of chemical substance was estimated as the following, which is shown in Tables 1 to 9.
In the Tables, “Intensity” indicated in the rightmost column is a value of the level of expressed mRNA of each gene in control cells as divided by the average level of the expressions of the whole genes. A gene of which mRNA level is lower in control, and is higher in cases of addition of chemical substance, is especially useful in the detection of toxic substances.
Here, when a ratio of an amount of mRNA expressed in the presence of the chemical substance to an amount of mRNA expressed in the absence of the chemical substance is two or more, then it is considered significant.

Cl[C@H]1[C@H](Cl)[C@@H](Cl)[C@@H](Cl)[C@H](Cl)[C@H]1Cl [(7), γ-Hexachlorocyclohexane]
level of expressed mRNA in the presence of chemical substance / level in the absence of chemical substance (yeast gene YDR133C): 0.2
level of expressed mRNA in the presence of chemical substance / level in the absence of chemical substance (yeast gene YDR250C): 1.0
level of expressed mRNA in the presence of chemical substance / level in the absence of chemical substance (yeast gene YDR278C): 0.7
level of expressed mRNA in the presence of chemical substance / level in the absence of chemical substance (yeast gene YDR281C): 0.6
The level of expressed mRNA in the presence of chemical substance/The level of expressed mRNA in the absence of chemical substance (yeast gene YDR330W): 1.3
level of expressed mRNA in the presence of chemical substance / level in the absence of chemical substance (yeast gene YDR366C): 1.5
The level of expressed mRNA in the presence of chemical substance/The level of expressed mRNA in the absence of chemical substance (yeast gene YDR411C): 2.0
The level of expressed mRNA in the presence of chemical substance/The level of expressed mRNA in the absence of chemical substance (yeast gene YDR511W): 1.5
The level of expressed mRNA in the presence of chemical substance/The level of expressed mRNA in the absence of chemical substance (yeast gene YDR545W): 1.2
The level of expressed mRNA in the presence of chemical substance/The level of expressed mRNA in the absence of chemical substance (yeast gene YEL001C): 1.1
The level of expressed mRNA in the presence of chemical substance/The level of expressed mRNA in the absence of chemical substance (yeast gene YER004W): 1.4
The level of expressed mRNA in the presence of chemical substance/The level of expressed mRNA in the absence of chemical substance (yeast gene YER035W): 1.9
The level of expressed mRNA in the presence of chemical substance/The level of expressed mRNA in the absence of chemical substance (yeast gene YER079W): 1.9
The level of expressed mRNA in the presence of chemical substance/The level of expressed mRNA in the absence of chemical substance (yeast gene YER106W): 1.0
The level of expressed mRNA in the presence of chemical substance/The level of expressed mRNA in the absence of chemical substance (yeast gene YER158C): 1.2
The level of expressed mRNA in the presence of chemical substance/The level of expressed mRNA in the absence of chemical substance (yeast gene YER163C): 1.5
The level of expressed mRNA in the presence of chemical substance/The level of expressed mRNA in the absence of chemical substance (yeast gene YER175C): 2.3
The level of expressed mRNA in the presence of chemical substance/The level of expressed mRNA in the absence of chemical substance (yeast gene YFL006W): 1.0
The level of expressed mRNA in the presence of chemical substance/The level of expressed mRNA in the absence of chemical substance (yeast gene YFL010C): 1.5
The level of expressed mRNA in the presence of chemical substance/The level of expressed mRNA in the absence of chemical substance (yeast gene YFL024C): 3.3
The level of expressed mRNA in the presence of chemical substance/The level of expressed mRNA in the absence of chemical substance (yeast gene YFL032W): 1.1
level of expressed mRNA in the presence of chemical substance / level in the absence of chemical substance (yeast gene YFR026C): 1.3
The level of expressed mRNA in the presence of chemical substance/The level of expressed mRNA in the absence of chemical substance (yeast gene YGL037C): 2.9
The level of expressed mRNA in the presence of chemical substance/The level of expressed mRNA in the absence of chemical substance (yeast gene YGL047W): 1.7
The level of expressed mRNA in the presence of chemical substance/The level of expressed mRNA in the absence of chemical substance (yeast gene YGL053W): 3.7
level of expressed mRNA in the presence of chemical substance / level in the absence of chemical substance (yeast gene YGL088W): 1.0
The level of expressed mRNA in the presence of chemical substance/The level of expressed mRNA in the absence of chemical substance (yeast gene YGL121C): 4.7
The level of expressed mRNA in the presence of chemical substance/The level of expressed mRNA in the absence of chemical substance (yeast gene YGL199C): 1.3
level of expressed mRNA in the presence of chemical substance / level in the absence of chemical substance (yeast gene YGR038W): 1.1
The level of expressed mRNA in the presence of chemical substance/The level of expressed mRNA in the absence of chemical substance (yeast gene YGR101W): 1.5
The level of expressed mRNA in the presence of chemical substance/The level of expressed mRNA in the absence of chemical substance (yeast gene YGR110W): 1.7
The level of expressed mRNA in the presence of chemical substance/The level of expressed mRNA in the absence of chemical substance (yeast gene YGR130C): 1.3
level of expressed mRNA in the presence of chemical substance / level in the absence of chemical substance (yeast gene YGR139W): 0.8
The level of expressed mRNA in the presence of chemical substance/The level of expressed mRNA in the absence of chemical substance (yeast gene YGR154C): 2.0
The level of expressed mRNA in the presence of chemical substance/The level of expressed mRNA in the absence of chemical substance (yeast gene YGR221C): 1.2
level of expressed mRNA in the presence of chemical substance / level in the absence of chemical substance (yeast gene YGR243W): 1.9
level of expressed mRNA in the presence of chemical substance / level in the absence of chemical substance (yeast gene YGR293C): 1.3
level of expressed mRNA in the presence of chemical substance / level in the absence of chemical substance (yeast gene YHL006C): 1.2
level of expressed mRNA in the presence of chemical substance / level in the absence of chemical substance (yeast gene YHR095W): 0.8
level of expressed mRNA in the presence of chemical substance / level in the absence of chemical substance (yeast gene YHR105W): 0.9
The level of expressed mRNA in the presence of chemical substance/The level of expressed mRNA in the absence of chemical substance (yeast gene YHR138C): 3.0
level of expressed mRNA in the presence of chemical substance / level in the absence of chemical substance (yeast gene YHR181W): 0.8
The level of expressed mRNA in the presence of chemical substance/The level of expressed mRNA in the absence of chemical substance (yeast gene YHR199C): 1.1
The level of expressed mRNA in the presence of chemical substance/The level of expressed mRNA in the absence of chemical substance (yeast gene YIL023C): 1.2
The level of expressed mRNA in the presence of chemical substance/The level of expressed mRNA in the absence of chemical substance (yeast gene YIL041W): 0.8
The level of expressed mRNA in the presence of chemical substance/The level of expressed mRNA in the absence of chemical substance (yeast gene YIL087C): 1.8
level of expressed mRNA in the presence of chemical substance / level in the absence of chemical substance (yeast gene YIL127C): 0.6
level of expressed mRNA in the presence of chemical substance / level in the absence of chemical substance (yeast gene YJL017W): 0.2
level of expressed mRNA in the presence of chemical substance / level in the absence of chemical substance (yeast gene YJL037W): 1.2
The level of expressed mRNA in the presence of chemical substance/The level of expressed mRNA in the absence of chemical substance (yeast gene YJL057C): 2.7
The level of expressed mRNA in the presence of chemical substance/The level of expressed mRNA in the absence of chemical substance (yeast gene YJL066C): 1.6
The level of expressed mRNA in the presence of chemical substance/The level of expressed mRNA in the absence of chemical substance (yeast gene YJL082W): 0.4
level of expressed mRNA in the presence of chemical substance / level in the absence of chemical substance (yeast gene YJL097W): 1.0
